# Reference: publication PMC3938723, “Learning from Host-Defense Peptides: Cationic, Amphipathic Peptoids with Potent Anticancer Activity” (PLoS ONE, 2014)
# Non-standard residues stand in square brackets, D forms with d. Residues, ends and D or L forms follow the SMILES beside them. Nspe = C[C@H](NCC(=O)O)c1ccccc1; Nlys = NCCCCNCC(=O)O
# Tests used:
# MCF-7 (breast cancer) = experiment: MTS cell viability assay, MCF-7; assay type: cell-based; conditions: 72 h
# Protocol: (§1) MCF-7, MCF-7/TxT50 and OVCAR-3 (available in ATCC) were kindly provided by Professor Branimir Sikic's lab at Stanford University, and were cultured in McCoy's 5A media (GIBCO) with 10% FBS and antibiotics. Primary dermal fibroblasts were gifts from Lifeline Cell Technology and were cultured <6 passages according to the protocol Lifeline provides. All the cells were cultured in cell incubators (Thermo Scientific) at 37°C with 5% CO2.
# (§2) This assay is a colorimetric method for determining the number of viable cells in proliferation. Aliquots of 100 µl media containing 1×10^4 cells were distributed into each well of a 96-well plate (BD Falcon). The following day, when cell density reaches about ∼40% confluency, the cell media were removed and replaced with serial dilutions of peptoid stocks in culturing media. For peptoid dilutions, peptoid stocks were initially diluted in media at 100 µM and then diluted by half in series using a multichannel pipette, and maintained in 100 µl media for each concentration with triple repeats. After peptoid solutions were transferred onto cells in 96-well plates, cells were incubated at 37°C for certain time periods. Then 20 µl of the CellTiter 96 Aqueous Non-Radioactive cell proliferation assay (Promega) reagent which contains a tetrazolium compound, [3-(4,5-dimethylthiazol-2-yl)-5-(3-carboxymethoxyphenyl)-2-(4-sulfophenyl)-2H-tetrazolium, inner salt; MTS(a)], was added to each well and cells were further incubated for 2 h to metabolize. The absorbance of formazan products were measured at 490 nm in a microplate reader (Molecular Devices). Percentage of cell viability = (A -A testblank)/(A control -A blank)×100, where A is the absorbance of the test well and A control the average absorbance of wells with cells not treated with peptoids. A testblank (media, MTS, and diluted peptoids) and A blank (media and MTS) were background absorbances measured in the absence of cells.
# (§3) The activity and selectivity of these peptoids against cancer cells were evaluated in vitro. Their cytotoxicity was tested in three cancer cell lines, MCF-7 (human breast cancer), LNCaP (human prostate cancer), and OVCAR-3 (human ovarian cancer). To estimate the selectivity of these peptoids in vitro, hemolytic activities of some peptoids were cited from previously published work (Table 2 **column), and the MRC-5 cell line (human fibroblasts derived from fetal lung tissues) and primary dermal fibroblasts were also tested as normal cell controls. Briefly, cells were treated with peptoids diluted in culturing media for certain time periods, and then cell viability was measured via MTS assays.
# LNCaP (prostate cancer) = experiment: MTS cell viability assay, LNCaP; assay type: cell-based; conditions: 72 h
# Protocol: as §2, §3
# OVCAR3 (ovarian cancer) = experiment: MTS cell viability assay, OVCAR3; assay type: cell-based; conditions: 72 h
# Protocol: as §1, §2, §3
# MCF-7 cells [1] = experiment: LDH leakage assay (plasma membrane integrity); assay type: cell-based, human; conditions: 50 µM, LDH leakage caused by cell lysis solution as the 100% control, measured immediately after treatment
# Protocol: This assay is used to measure the membrane integrity as a function of the amount of cytoplasmic LDH (lactic dehydrogenase) released into the medium. Experiments were carried out according to the protocol of the In Vitro Toxicology Assay Kit, Lactic Dehydrogenase (LDH) based (Sigma-Aldrich). Briefly, cells were plated as described before, and peptoids were diluted similarly but in culturing media without phenol red to reduce background signal. After peptoid treatments, media supernatant were collected and centrifuged to remove any cell debris, and analyzed for LDH activity in a 96-well plate using the kit, absorbance at 490 nm and 690 nm measured using a microplate reader. All the following absorbance difference = A 490nm –A 690nm. Percentage of LDH leakage = (A -A testblank)/(A lysis -A blank)×100, where A is the average absorbance difference of the test wells and A lysis the average absorbance difference of wells with cells treated with cell lysis solution provided by the kit for 45 min. A testblank (media, diluted peptoids and LDH measuring reagents) and A blank (media and LDH measuring reagents) were background absorbance differences measured in the absence of cells.
# These anticancer peptoids exert fast killing in cancer cells and are not affected by the multidrug resistance. […] The LDH assay measures membrane damage by quantifying the leakage of the cytoplasmic enzyme LDH. […]
# mice = experiment: Acute toxicity observation in xenograft mice; assay type: in vivo; conditions: intratumor injections ~1 mg/kg three times a week, xenograft NSG mice
# Protocol: 80,000 cells from a dissociated second generation metastatic breast cancer tumor were suspended in Medium 199 containing 25% Matrix Matrigel (Becton Dickinson 354248) and injected into the mammary fat pad of 4–8 week old NOD.Cg-Prkdc^scid Il2rg^tm1Wjl/SzJ (NSG) mice. After two weeks, 100 µl PBS containing 110 µM peptoid 1 or control peptide was injected into the mammary fat pad three times a week, roughly at a dose of 1 mg/kg. Tumor volumes were determined using direct caliper measurements following […] of treatment.
# Human breast cancer cells were implanted in the mammary fat pad of immunocompromised mice.
# MCF-7 cells [2] = experiment: Apoptotic DNA ladder assay; assay type: cell-based, human; conditions: 24 h treatment
# human red blood cells = conditions: concentration causing 10% hemolysis of human red blood cells; cited from earlier work
# Description: Table 2 Peptoid Cytotoxicity in cancer cell lines and control cells. | column: HC10 (µM) ** || The chain length is believed to influence not only the activity but also modes of action of cationic, amphipathic peptides, [34]. […] Thus we limited the chain length of peptoids to 13 residues at most, and studied 1 9mer which has the same charge-to-length ratio (CTLR) as peptoid ...
compound,measurement,setting,value
"C[C@@H](c1ccccc1)N(CC(N)=O)C(=O)CN(C(=O)CN(CCCCN)C(=O)CN(C(=O)CN(C(=O)CN(CCCCN)C(=O)CN(C(=O)CN(C(=O)CN(CCCCN)C(=O)CN(C(=O)CN(C(=O)CNCCCCN)[C@@H](C)c1ccccc1)[C@@H](C)c1ccccc1)[C@@H](C)c1ccccc1)[C@@H](C)c1ccccc1)[C@@H](C)c1ccccc1)[C@@H](C)c1ccccc1)[C@@H](C)c1ccccc1 [Peptoid 1, H-(NLys-Nspe-Nspe)4-NH2] (H-[Nlys][Nspe][Nspe][Nlys][Nspe][Nspe][Nlys][Nspe][Nspe][Nlys][Nspe][Nspe]-NH2)",LC50 MCF-7 (breast cancer),MCF-7 (breast cancer),5 µM
same,LC50 LNCaP (prostate cancer),LNCaP (prostate cancer),5 µM
same,LC50 OVCAR3 (ovarian cancer),OVCAR3 (ovarian cancer),6 µM
same,LDH (enzyme) leakage,MCF-7 cells [1],~50%
same,acute side effects in mice,mice,without causing any obvious acute side effects
same,typical apoptotic DNA ladders,MCF-7 cells [2],not observed
same,HC10,human red blood cells,21 µM
